The source of these data is US20220009920A1 (GB005, Inc., priority 2020, published 2022).

Common to all, as to assay: Large panel kinase profiling
Format in all cases: biochemical
Settings in all cases: 1 μM test article, 1 mM ATP

Assay [1] has as its target T1, CDK7 (Homo sapiens, UniProt P50613).
T1 construct: AssayQuant Technologies, Inc. (ran the panel)
The method in brief: (§1)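 CSox-Sensor fluorescence readout; test article 1 μM, ATP 1 mM, 30° C.; kinetic reads at 1-min intervals, Ex 360/Em 485 nm.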

Assay [2] concerns the target T2, EPHB2 (Homo sapiens, UniProt P29323).
T2 sequence (P29323 19-1055): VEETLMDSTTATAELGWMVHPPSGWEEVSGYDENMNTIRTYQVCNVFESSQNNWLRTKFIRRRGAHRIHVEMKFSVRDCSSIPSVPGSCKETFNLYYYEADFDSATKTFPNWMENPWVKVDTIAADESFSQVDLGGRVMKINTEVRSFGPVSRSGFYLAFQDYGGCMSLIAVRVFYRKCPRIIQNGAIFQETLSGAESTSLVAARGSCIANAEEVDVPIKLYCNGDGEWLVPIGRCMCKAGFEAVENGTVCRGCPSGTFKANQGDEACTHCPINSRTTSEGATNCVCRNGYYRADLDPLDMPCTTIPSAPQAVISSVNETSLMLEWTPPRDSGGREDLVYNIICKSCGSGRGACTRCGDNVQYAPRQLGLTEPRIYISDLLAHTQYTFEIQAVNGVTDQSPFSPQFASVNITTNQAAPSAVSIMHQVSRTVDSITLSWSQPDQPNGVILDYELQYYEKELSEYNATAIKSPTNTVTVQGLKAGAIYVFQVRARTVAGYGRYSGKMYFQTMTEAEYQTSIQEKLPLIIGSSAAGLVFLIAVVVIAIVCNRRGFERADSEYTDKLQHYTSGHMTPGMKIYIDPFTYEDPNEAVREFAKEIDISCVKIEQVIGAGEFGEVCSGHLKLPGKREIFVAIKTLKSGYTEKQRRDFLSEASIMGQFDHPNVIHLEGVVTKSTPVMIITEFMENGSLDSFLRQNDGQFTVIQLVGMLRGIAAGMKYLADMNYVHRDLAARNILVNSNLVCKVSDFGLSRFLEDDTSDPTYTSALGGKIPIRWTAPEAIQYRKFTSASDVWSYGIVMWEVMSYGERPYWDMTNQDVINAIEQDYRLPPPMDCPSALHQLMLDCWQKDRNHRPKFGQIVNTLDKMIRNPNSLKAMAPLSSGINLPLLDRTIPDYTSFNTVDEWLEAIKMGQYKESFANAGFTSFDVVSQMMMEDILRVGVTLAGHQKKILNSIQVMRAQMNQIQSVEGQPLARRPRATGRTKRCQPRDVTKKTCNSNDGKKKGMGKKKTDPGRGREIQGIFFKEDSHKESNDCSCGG
The method in brief: as §1

The target of assay [3] is T3, MAP4K1/HPK1 (Homo sapiens, UniProt Q92918).
T3 construct: AssayQuant Technologies, Inc. (service provider)
The method in brief: as §1

Assay [4] concerns the target T4, STK11/LKB1 (Homo sapiens, UniProt Q15831).
T4 construct: AssayQuant Technologies, Inc. (contract assay)
T4 sequence (Q15831 1-433): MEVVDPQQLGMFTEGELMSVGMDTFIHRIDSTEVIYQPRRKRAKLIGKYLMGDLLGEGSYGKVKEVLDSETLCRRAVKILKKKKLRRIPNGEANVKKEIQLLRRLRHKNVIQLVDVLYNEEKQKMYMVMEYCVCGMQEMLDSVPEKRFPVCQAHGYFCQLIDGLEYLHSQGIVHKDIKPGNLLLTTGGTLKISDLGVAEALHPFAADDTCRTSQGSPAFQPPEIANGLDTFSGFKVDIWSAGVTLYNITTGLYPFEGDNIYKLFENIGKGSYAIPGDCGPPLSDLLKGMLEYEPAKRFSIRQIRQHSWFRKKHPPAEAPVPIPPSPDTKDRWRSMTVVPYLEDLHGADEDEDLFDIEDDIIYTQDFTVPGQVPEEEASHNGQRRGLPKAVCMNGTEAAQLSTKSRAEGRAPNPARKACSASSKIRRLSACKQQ
T4 sequence (Q7RTN6 1-431 partner): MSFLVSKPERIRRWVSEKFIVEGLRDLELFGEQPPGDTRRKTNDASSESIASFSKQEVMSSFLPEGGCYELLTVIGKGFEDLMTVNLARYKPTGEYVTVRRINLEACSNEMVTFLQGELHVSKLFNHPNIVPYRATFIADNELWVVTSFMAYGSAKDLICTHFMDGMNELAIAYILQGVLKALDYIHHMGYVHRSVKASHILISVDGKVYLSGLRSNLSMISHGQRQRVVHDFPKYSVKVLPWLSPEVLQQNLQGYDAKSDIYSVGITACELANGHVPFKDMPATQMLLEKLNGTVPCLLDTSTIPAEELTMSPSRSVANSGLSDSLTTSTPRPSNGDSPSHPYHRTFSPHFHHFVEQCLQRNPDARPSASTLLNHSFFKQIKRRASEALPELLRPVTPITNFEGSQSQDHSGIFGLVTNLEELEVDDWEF
T4 sequence (Q9Y376 1-341 partner): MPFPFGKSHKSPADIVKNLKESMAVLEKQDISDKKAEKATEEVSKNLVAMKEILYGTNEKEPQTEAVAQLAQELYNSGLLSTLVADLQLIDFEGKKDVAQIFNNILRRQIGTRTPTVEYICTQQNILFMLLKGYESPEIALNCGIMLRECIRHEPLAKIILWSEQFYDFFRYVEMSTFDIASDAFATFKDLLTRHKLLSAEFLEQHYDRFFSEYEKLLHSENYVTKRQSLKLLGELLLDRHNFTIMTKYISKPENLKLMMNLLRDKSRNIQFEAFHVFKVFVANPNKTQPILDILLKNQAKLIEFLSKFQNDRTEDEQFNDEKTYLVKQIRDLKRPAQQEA
The method in brief: as §1

SMILES strings stand for the structures.

T3 sequence (Q92918 whole entry): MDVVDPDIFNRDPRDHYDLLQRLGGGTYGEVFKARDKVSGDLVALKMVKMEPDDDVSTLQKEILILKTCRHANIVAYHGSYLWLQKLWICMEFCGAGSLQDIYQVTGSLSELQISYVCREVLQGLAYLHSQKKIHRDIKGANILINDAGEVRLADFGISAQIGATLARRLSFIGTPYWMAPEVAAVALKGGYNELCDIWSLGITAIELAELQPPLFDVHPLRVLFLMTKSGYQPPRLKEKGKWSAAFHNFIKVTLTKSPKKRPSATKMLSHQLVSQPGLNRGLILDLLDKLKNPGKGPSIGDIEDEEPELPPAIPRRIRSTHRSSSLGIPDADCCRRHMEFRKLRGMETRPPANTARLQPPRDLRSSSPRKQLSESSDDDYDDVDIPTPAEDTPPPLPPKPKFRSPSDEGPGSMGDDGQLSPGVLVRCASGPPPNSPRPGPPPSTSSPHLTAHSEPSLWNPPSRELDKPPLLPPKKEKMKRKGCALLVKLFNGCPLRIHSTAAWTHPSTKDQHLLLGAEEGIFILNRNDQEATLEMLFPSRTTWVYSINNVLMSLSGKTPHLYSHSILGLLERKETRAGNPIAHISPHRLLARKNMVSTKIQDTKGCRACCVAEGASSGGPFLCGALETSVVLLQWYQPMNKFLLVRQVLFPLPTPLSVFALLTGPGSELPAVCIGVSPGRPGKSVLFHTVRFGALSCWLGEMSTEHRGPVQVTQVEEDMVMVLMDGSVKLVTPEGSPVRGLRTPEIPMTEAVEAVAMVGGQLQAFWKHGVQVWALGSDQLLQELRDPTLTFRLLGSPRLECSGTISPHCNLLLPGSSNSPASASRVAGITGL
T1 sequence (P50613 whole entry, species assumed): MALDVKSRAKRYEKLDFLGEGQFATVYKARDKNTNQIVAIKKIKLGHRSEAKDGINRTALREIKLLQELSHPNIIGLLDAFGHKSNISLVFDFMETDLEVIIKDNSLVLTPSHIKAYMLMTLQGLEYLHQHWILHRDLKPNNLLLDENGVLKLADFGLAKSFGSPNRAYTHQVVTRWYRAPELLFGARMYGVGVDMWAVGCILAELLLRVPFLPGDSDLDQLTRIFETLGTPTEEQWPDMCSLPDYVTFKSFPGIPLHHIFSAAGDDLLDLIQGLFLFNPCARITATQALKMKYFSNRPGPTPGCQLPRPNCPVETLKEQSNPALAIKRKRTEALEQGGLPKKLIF
T1 sequence (P51946 whole entry partner, species assumed): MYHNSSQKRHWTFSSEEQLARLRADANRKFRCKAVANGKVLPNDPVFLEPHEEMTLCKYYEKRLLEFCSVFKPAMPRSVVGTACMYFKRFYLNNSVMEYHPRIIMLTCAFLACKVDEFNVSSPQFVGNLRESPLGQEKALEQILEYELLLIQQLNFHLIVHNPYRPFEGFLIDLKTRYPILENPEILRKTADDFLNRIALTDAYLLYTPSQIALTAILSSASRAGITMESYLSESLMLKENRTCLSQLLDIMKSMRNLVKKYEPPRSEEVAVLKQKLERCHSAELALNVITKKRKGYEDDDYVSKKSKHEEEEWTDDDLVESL
T1 sequence (P51948 whole entry partner, species assumed): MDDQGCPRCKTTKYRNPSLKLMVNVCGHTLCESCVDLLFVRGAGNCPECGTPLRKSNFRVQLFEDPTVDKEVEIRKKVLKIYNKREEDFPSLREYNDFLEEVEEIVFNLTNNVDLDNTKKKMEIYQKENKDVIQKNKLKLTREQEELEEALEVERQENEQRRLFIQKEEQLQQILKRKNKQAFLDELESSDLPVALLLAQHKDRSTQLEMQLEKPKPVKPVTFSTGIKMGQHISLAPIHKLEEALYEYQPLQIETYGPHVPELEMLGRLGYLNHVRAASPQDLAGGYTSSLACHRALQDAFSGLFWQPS

On to `C=CC(=O)N1CCCC(c2c(F)cc(C(N)=O)c3[nH]c4c(c23)CCCCC4)C1` (single isomer, unassigned) [Compound 5-6], for which the inhibition at 1 µM in assay [1] was -10.1%; in assay [2], 21.3%; in assay [3], -3.2%; in assay [4], 23.5%.
As to `C=CC(=O)N1CCC[C@@H](c2c(F)cc(C(N)=O)c3[nH]c4c(c23)CC2(CC4)CC2)C1` [Compound 6-2, (S)-5-(1-acryloylpiperidin-3-yl)-6-fluoro-1,2,4,9-tetrahydrospiro[carbazole-3,1′-cyclopropane]-8-carboxamide], the inhibition at 1 µM in assay [1] is -6%; in assay [2], 11.8%; in assay [3], 16.3%; in assay [4], -4.3%.
For the molecule `C=CC(=O)N1CCC[C@@H](c2c(F)cc(C(N)=O)c3[nH]c4c(c23)CCC4)C1` [Compound 10-2, (S)-8-(1-acryloylpiperidin-3-yl)-7-fluoro-1,2,3,4-tetrahydrocyclo-penta[b]indole-5-carboxamide], the inhibition at 1 µM in assay [1] was 14.1%; in assay [2], 0.9%; in assay [3], 0.8%; in assay [4], -6%.

Usually inhibition stands for the drop in the measured response relative to a control, in per cent.
